In patent publication US6518302B1, “Remedies” (Takara Shuzo Co., Ltd., priority 1999, dated 2003):
Like-named read-outs stand apart in the source and are kept apart here.

Assays:
[1] = system: HL-60 (ATCC CCL-240) cells; assay: Viability of HL-60 cells by Trypan Blue staining; format: cell-based; conditions: Homo sapiens, read-out: Viability50, concentration that results in a viability of 50%
Method: HL-60 (ATCC CCL-240) cells were cultured at 37° C. in RPMI 1640 medium (Bio Whittaker) containing 10% fetal calf serum (JRH) which had been treated at 56° C. for 30 minutes and suspended in RPMI 1640 medium at a concentration of 2.5×10^5 cells/4.5 ml.
[…] each of aqueous solutions of the compound (2) at a concentration of 10, 50 or 100 mM, the compound (7) at a concentration of 500, 1000 or 1500 μM, the compound (9) at a concentration of 750, 1500 or 3000 μM, the compound (11) at a concentration of 750, 1500 or 3000 μM, or the compound (14) at a concentration of 750, 1500 or 3000 μM was added to 4.5 ml of the suspension. The mixtures were incubated at 37° C. for 24 hours in the presence of 5% CO2.
A portion of the cells cultured for 24 or 48 hours as described in Example 4 was stained with 0.4% Trypan Blue and examined under an optical microscope. The number of viable cells which were not stained and the number of dead cells which were stained blue were counted. The concentration of each of the compounds (2), (7), (9), (11) and (14) that results in a viability of 50% (Viability50 mM) was determined.

[2] = system: HL-60 cells (ATCC CCL-240); assay: Proliferation of HL-60 cells with or without hydroxyurea G1 arrest (WST-1); format: cell-based, Human; conditions: Homo sapiens, 48 hours
Method: HL-60 cells (ATCC CCL-240) were suspended in RPMI 1640 medium (Bio Whittaker, 12-702F) containing 10% fetal calf serum (Gibco) and 100 μM hydroxyurea at a concentration of 5×10^5 cells/ml. 20 ml of the suspension was added to a 10-cm Petri dish. The dish was incubated at 37° C. overnight in the presence of 5% CO2 to make the cells arrest at G1 phase. The cells were collected by centrifugation and resuspended in RPMI 1640 medium containing 10% fetal calf serum (Gibco) and 100 μM hydroxyurea at a concentration of 5×10^5 cells/ml. 5 ml of the suspension was added to each well of a 6-well microtiter plate. On the other hand, as cells without the treatment with hydroxyurea, HL-60 cells were suspended in RPMI 1640 medium containing 10% fetal calf serum (Gibco) at a concentration of 1×10^5 cells/ml. 5 ml of the suspension was added to each well of a 6-well microtiter plate. 50 μl of a solution containing DGE at a concentration of 30, 22.5, 15 or 7.5 mM in water, 25 μl of a solution containing the compound (7) at a concentration of 60, 45, 30 or 15 mM in dimethyl sulfoxide, or 25 μl of a solution containing the compound (17) at a concentration of 100, 75, 50 or 25 mM in dimethyl sulfoxide was added to the well containing the cells treated with hydroxyurea. 50 μl of a solution containing DGE at a concentration of 8, 6, 4 or 2 mM in water, 25 μl of a solution containing the compound (7) at a concentration of 30, 22.5, 15 or 7.5 mM in dimethyl sulfoxide, or 25 μl of a solution containing the compound (17) at a concentration of 80, 60, 40 or 20 mM in dimethyl sulfoxide was added to the well containing the cells without the treatment with hydroxyurea. The plate was incubated for additional 48 hours. Cells collected by centrifuging the culture were suspended in 5 ml of fresh RPMI 1640 medium containing 10% fetal calf serum (Gibco). 100 μl of the suspension was used for measuring viable cell number using Premix WST-1 Cell Proliferation Assay System (Takara Shuzo, MK400).
For each of the samples, the concentration at which 50% of the proliferation is inhibited (IC50) for the cells treated with hydroxyurea was higher than that for the cells without the treatment with hydroxyurea. Table 3 summarizes IC50 (μM) for each of the samples. […] Since most of cells in a living body are arrested at G1 phase, it is considered that DGE and R-AhGal compounds (precursors of DGE) are agents less toxic to a living body.

[3] = Conversion into DGE in culture medium (thin-layer chromatography); format: in vitro ADME; conditions: 10 mM in RPMI 1640 medium with 10% calf serum, 37° C., 4 hours
Method: The compound (7) or the compound (9) synthesized in Example 1 was dissolved at a final concentration of 10 mM in RPMI 1640 medium supplemented with 10% calf serum. These samples were allowed to stand at 37° C. for 4 hours. […] each of the samples was then subjected to thin-layer chromatography using chloroform:methanol=5:1 as a developing solvent. Detection was carried out using orcinol-sulfuric acid.
For each sample, a spot with Rf value of 0.5, the same value as that for the compound of general formula IV in which Z is CH2OH and Y is H (L-glycero-1,5-epoxy-1αβ,6-dihydroxy-cis-hex-3-en-2-one, hereinafter referred to as DGE), was detected.

[4] = HL-60 cells arrested at G1 phase with 100 μM hydroxyurea, read-out: IC50, Cells treated with hydroxyurea
[5] = HL-60 cells, read-out: IC50, Cells without treatment with hydroxyurea

IC50 ([1]; 24 hours) [µM]	IC50 ([1]; 48 hours) [µM]	IC50 [2, 4] [µM]	IC50 [2, 5] [µM]	conversion into DGE (spot with Rf value of 0.5, the same value as DGE) [3]	SMILES
123	101	151	79.1		O=C[C@H](O)[C@H]1OC[C@@H](O)[C@@H]1OC(=O)c1ccccc1 [Compound (7), 4-O-benzoyl-3,6-anhydro-D-galactose]
551	150			conversion into DGE was also observed	OCC1OC(OC2C(CO)OC(OC3C(CO)OC(OC4C(O)COC4C(O)C(O)O)C(O)C3O)C(O)C2O)C(O)C(O)C1O [Compound (14), 4-O-β-maltotoriosyl-3,6-anhydro-D-galactose]
		264	190	conversion into DGE was also observed	O=C[C@H](O)[C@H]1OC[C@@H](O)[C@@H]1OCc1ccccc1 [Compound (17), 4-O-benzyl-3,6-anhydro-D-galactose]
